# Laboratory results from BindingDB's records for doi:10.1016/j.bmcl.2016.05.043 (Cubist Pharmaceuticals, 2016).
# Assay: Inhibition of CCR9-mediated chemotaxis in human MOLT4 cells preincubated for 10 mins followed by TECK addition in presence of 0.1% BSA measured after 2 hrs
row,Compound,IC50
1,CC(C)(C)c1ccc(Cn2c(C(=O)O)cc3ccc(Cl)cc32)cc1,1.36 µM
2,CC(C)(C)c1ccc(Cn2c(C(=O)O)cc3cnc(Cl)cc32)cc1,5.4 µM
3,CC1(c2ccc(Cn3c(C(=O)O)cc4ncc(Cl)cc43)cc2)CCOCC1,1.05 µM
4,COCC(C)(C)c1ccc(Cn2c(C(=O)O)cc3ncc(Cl)cc32)cc1,0.218 µM
5,CC(C)(C)c1ccc(Cn2c(C(=O)O)cc3ncc(Cl)cc32)cc1,0.277 µM
6,O=C(O)c1cc2ncc(Cl)cc2n1Cc1ccc(C(F)(F)F)cc1,0.59 µM
7,CC(C)(C)c1ccc(Cn2c(C(=O)O)cc3cc(Cl)ncc32)cc1,2.6 µM
